System: GAB2-pS210
Experiment: In vitro dephosphorylation of GAB2-pS210 (Western blot)
Type: biochemical, human
Settings: GAB2-pS210 relative to GAB2, Calyculin A 20 nM 12 min in HeLa Kyoto cells, recombinant PP1c 1 µM, 1 h at 30 °C in lysate
Protocol: pEGFP(C1)-14-3-3β or pCMV-GAB2-3FLAG was transfected into HeLa Kyoto cells as described in the respective section for 24 h. Cells were incubated with or w/o 20 nM Calyculin A (# 9902 S, Cell Signaling Technology) in complete growth media for 12 min. Cells were washed twice on ice with cold PBS and after addition of 500 µL lysis buffer (100 mM NaCl, 10 mM Tris, 0.1% IGEPAL, 1 mM EDTA, 1 mM EGTA, 20 nM Calyculin A, 1x cOmplete Mini protease inhibitor cocktail (Sigma), 2 mM DTT, 2 mM MnCl2) cells were scraped from plates, lysed by 10 pushes through an injection needle and the insoluble fraction was pelleted by centrifugation (10 min, 10^4 rcf, 4 °C). […] Beads were then washed three times with lysis buffer and samples were eluted in 1x SDS sample buffer by heating to 95 °C for 10 min and further analyzed by SDS PAGE for 14-3-3/GAB2 association and phosphorylation status of GAB2-pS210.
For SDS-PAGE, samples were loaded on NuPAGE™ 4-12% Bis-Tris protein gels (Invitrogen) and gel electrophoresis was performed at 180 V constant in 1x MOPS buffer. […] All blots were quantified using raw images and ImageLab software (v6.0.1, BioRad): Files were imported and analyzed without further modifications. […] The quantification was exported from the analysis table and measurements of background adjusted band volumes where used for further normalization steps and graphical depiction. […]

## PP1c: recombinant catalytic subunit of PP1
  p-level of GAB2 pS210: decrease in the p-level
